Source: patent US20210122757A1, “SPIROCYCLIC COMPOUNDS AS MODULATORS OF INDOLEAMINE 2,3-DIOXYGENASE” (PHENEX DISCOVERY VERWALTUNGS-GMBH, priority 2018, published 2021)

Target: T1, Indoleamine 2,3-dioxygenase (Homo sapiens, UniProt P14902)
T1 construct: endogenous in cells; host or cells: SKOV-3 (ATCC HTB-77), stimulated with 50 ng/ml interferon gamma
Assay: SKOV-3 Cellular Indoleamine 2,3-dioxygenase Assay
Details: SKOV-3 cells, 50 ng/ml Interferon gamma, 100 μM L-Tryptophan, 24 hours, N-Formylkynurenin fluorescence detection; read-out: cell based activity (IC50)
Experimental: SKOV-3 Cellular Indoleamine 2,3-dioxygenase Assay
SKOV-3 cells were obtained from the American Type Culture Collection (ATCC® HTB-77™) and maintained in McCoy's medium (Pan Biotech) supplemented with 10% fetal bovine serum and 1% Penicillin/Streptomycin. Cells were kept at 37° C. in a humidified incubator with 5% CO2. For assay preparation, cells were seeded at a density of 2*10^5/ml into black clear bottom 96 well plates in 100 μl medium/well supplemented with 50 ng/ml Interferon gamma (eBioscience, Thermo Fisher Scientific). After cells fully adhered to the plate, dilution series of compounds were added in medium containing additional L-Tryptophan to a final L-Tryptophan concentration of 100 μM. The cells were incubated for 24 hours. Detection of produced N-Formylkynurenin was performed by addition of 3-Methylpiperidine to a final concentration of 200 mM. The plates were sealed and heated to 65° C. for 20 minutes in a water bath. After cooling the fluorescence of each well was recorded with a Victor™X4 (PerkinElmer) plate reader at an emission wavelength of 535 nm and excitation at 405 nm (Tomek et al.; Anal Bioanal Chem (2013) 405:2515-2524, Tomek et al.; Biochim Biophys Acta. 2015 September; 1850(9):1772-80).

T1 sequence (P14902 whole entry): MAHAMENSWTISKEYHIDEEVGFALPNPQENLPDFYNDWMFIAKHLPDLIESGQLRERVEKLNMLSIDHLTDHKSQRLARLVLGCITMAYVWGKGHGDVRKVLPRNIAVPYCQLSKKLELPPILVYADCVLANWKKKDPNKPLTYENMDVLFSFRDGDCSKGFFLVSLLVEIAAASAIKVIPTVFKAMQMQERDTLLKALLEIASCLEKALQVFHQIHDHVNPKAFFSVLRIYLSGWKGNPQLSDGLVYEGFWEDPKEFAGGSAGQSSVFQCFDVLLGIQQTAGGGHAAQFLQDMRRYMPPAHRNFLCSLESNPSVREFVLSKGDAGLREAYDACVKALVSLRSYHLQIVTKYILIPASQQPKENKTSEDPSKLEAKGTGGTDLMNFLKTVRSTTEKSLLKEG

Structure (SMILES)	IC50 [nM]
CCC(C(=O)Nc1ccc(Cl)cn1)C1CCC2(CC1)COc1cc(C(F)(F)F)ccc12 (single isomer, unassigned) [Example 10b, N-(5-chloropyridin-2-yl)-2-(6-(trifluoromethyl)-2H-spiro[benzofuran-3,1′-cyclohexan]-4′-yl)butanamide]	< 50
CCC(C(=O)Nc1ccc(Cl)cn1)C1CCC2(CC1)COc1cc(C(F)(F)F)ccc12 (single isomer, unassigned) [Example 10c, N-(5-chloropyridin-2-yl)-2-(6-(trifluoromethyl)-2H-spiro[benzofuran-3,1′-cyclohexan]-4′-yl)butanamide]	< 50
CCC(C(=O)Nc1ccc(Cl)cn1)C1CCC2(CC1)COc1cc(C(F)(F)F)ccc12 (single isomer, unassigned) [Example 10d, N-(5-chloropyridin-2-yl)-2-(6-(trifluoromethyl)-2H-spiro[benzofuran-3,1′-cyclohexan]-4′-yl)butanamide]	< 50
CCC(C(=O)Nc1ccc(Cl)cn1)C1CCC2(CC1)COc1cc(C(F)(F)F)ccc12 (single isomer, unassigned) [Example 10e, N-(5-chloropyridin-2-yl)-2-(6-(trifluoromethyl)-2H-spiro[benzofuran-3,1′-cyclohexan]-4′-yl)butanamide]	≥ 50
CC(c1nc2cc(Cl)ccc2[nH]1)C1CCC2(CC1)COc1cc(C(F)(F)F)ccc12 (single isomer, unassigned) [Example 11b, 5-Chloro-2-(1-(6-(trifluoromethyl)-2H-spiro[benzofuran-3,1′-cyclohexan]-4′-yl)ethyl)-1H-benzo[d]imidazole]	≥ 50
CC(c1nc2cc(Cl)ccc2[nH]1)C1CCC2(CC1)COc1cc(C(F)(F)F)ccc12 (single isomer, unassigned) [Example 11c, 5-Chloro-2-(1-(6-(trifluoromethyl)-2H-spiro[benzofuran-3,1′-cyclohexan]-4′-yl)ethyl)-1H-benzo[d]imidazole]	< 50
CC(c1nc2cc(Cl)ccc2[nH]1)C1CCC2(CC1)COc1cc(C(F)(F)F)ccc12 (single isomer, unassigned) [Example 11d, 5-Chloro-2-(1-(6-(trifluoromethyl)-2H-spiro[benzofuran-3,1′-cyclohexan]-4′-yl)ethyl)-1H-benzo[d]imidazole]	< 50
CC(c1nc2cc(Cl)ccc2[nH]1)C1CCC2(CC1)COc1cc(C(F)(F)F)ccc12 (single isomer, unassigned) [Example 11e, 5-Chloro-2-(1-(6-(trifluoromethyl)-2H-spiro[benzofuran-3,1′-cyclohexan]-4′-yl)ethyl)-1H-benzo[d]imidazole]	< 50
CC(C(=O)NC1Cc2ccc(F)cc21)C1CCC2(CC1)COc1cc(C(F)(F)F)ccc12 (single isomer, unassigned) [Example 12a]	≥ 50
CC(C(=O)NC1Cc2ccc(F)cc21)C1CCC2(CC1)COc1cc(C(F)(F)F)ccc12 (single isomer, unassigned) [Example 12b]	≥ 50
O=C(C[C@H]1CC[C@@]2(CC1)COc1cc(C(F)(F)F)ccc12)Nc1ccc(Cl)cc1F (single isomer, unassigned) [Example 14a, N-(4-chloro-2-fluorophenyl)-2-(6-(trifluoromethyl)-2H-spiro[benzofuran-3,1′-cyclohexan]-4′-yl)acetamide]	< 50
O=C(C[C@H]1CC[C@@]2(CC1)COc1cc(C(F)(F)F)ccc12)Nc1ccc(Cl)cc1F (single isomer, unassigned) [Example 14b, N-(4-chloro-2-fluorophenyl)-2-(6-(trifluoromethyl)-2H-spiro[benzofuran-3,1′-cyclohexan]-4′-yl)acetamide]	≥ 50
C[C@H](C(=O)Nc1ccc(Cl)cc1)[C@H]1CC[C@@]2(CC1)COc1cc(C(F)(F)F)ccc12 [Example 3b, (S)—N-(4-Chlorophenyl)-2-((3S,4′r)-6-(trifluoromethyl)-2H-spiro[benzofuran-3,1′-cyclohexan]-4′-yl)propanamide]	< 50
C[C@@H](C(=O)Nc1ccc(Cl)cc1)[C@H]1CC[C@@]2(CC1)COc1cc(C(F)(F)F)ccc12 [Example 3c, (R)—N-(4-Chlorophenyl)-2-((3R,4′r)-6-(trifluoromethyl)-2H-spiro[benzofuran-3,1′-cyclohexan]-4′-yl)propanamide]	< 50
C[C@H](C(=O)Nc1ccc(Cl)cc1)[C@H]1CC[C@]2(CC1)COc1cc(C(F)(F)F)ccc12 [Example 3d, (S)—N-(4-Chlorophenyl)-2-((3R,4′s)-6-(trifluoromethyl)-2H-spiro[benzofuran-3,1′-cyclohexan]-4′-yl)propanamide]	< 50
C[C@@H](C(=O)Nc1ccc(Cl)cc1)[C@H]1CC[C@]2(CC1)COc1cc(C(F)(F)F)ccc12 [Example 3e, (R)—N-(4-chlorophenyl)-2-((3S,4′s)-6-(trifluoromethyl)-2H-spiro[benzofuran-3,1′-cyclohexan]-4′-yl)propanamide]	≥ 50
C[C@H](C(=O)Nc1ccc(Cl)cc1)[C@H]1CC[C@]2(CC1)COc1cc(C(F)F)ccc12 [Example 13, (S)—N-(4-chlorophenyl)-2-((3R,4′s)-6-(difluoromethyl)-2H-spiro[benzofuran-3,1′-cyclohexan]-4′-yl)propanamide]	< 50
